Experimental data reported in patent US12660819B2, “Herbicidal derivatives” (SYNGENTA CROP PROTECTION AG, priority 2020, dated 2026).

Key:
Assay type in all cases: in vivo
[1] = test system: Ipomoea hederacea (IPOHE); assay: Pre-emergence Test (glasshouse, percentage damage to the plant); conditions: 1000 g/ha unless otherwise stated, five-point scale
[2] = test system: Amaranthus retoflexus (AMARE); assay: as above; conditions: 1000 g/ha unless otherwise stated, five-point scale
[3] = test system: Abutilon theophrasti (ABUTH); assay: as above; conditions: 1000 g/ha unless otherwise stated, five-point scale
[4] = test system: Setaria faberi (SETFA); assay: Post-emergence Test (glasshouse, percentage damage to the plant); conditions: post-emergence spray, 1000 g/ha unless otherwise stated, evaluated after 13 days
In short: (§1)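 Seeds sown in standard soil in a glasshouse (24/16 °C day/night, 14 h light, 65% humidity), then sprayed with an aqueous solution of the compound formulated in acetone/water 50:50 with 0.5% Tween 20 at 1000 g/ha unless otherwise stated. Percentage damage was scored after 13 days on a five-point scale (5=81-100%; 1=0-20%).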

[5] = test system: Zea mays (ZEAMX); assay: as above; conditions: post-emergence spray, 1000 g/ha unless otherwise stated, evaluated after 13 days
In short: as §1

[6] = test system: Ipomoea hederacea (IPOHE); assay: as above; conditions: post-emergence spray, 1000 g/ha unless otherwise stated, evaluated after 13 days
In short: as §1

[7] = test system: Echinochloa crus-galli (ECHCG); assay: as above; conditions: post-emergence spray, 1000 g/ha unless otherwise stated, evaluated after 13 days
In short: (§2)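 Seeds sown in pots in glasshouse (24/16 °C day/night, 14 h light, 65% humidity), then sprayed with compound at 1000 g/ha unless stated, from acetone/water 50:50 with 0.5% Tween 20. Damage assessed 13 days later on five-point scale (1=0–20% to 5=81–100%).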

[8] = test system: Abutilon theophrasti (ABUTH); assay: as above; conditions: post-emergence spray, 1000 g/ha unless otherwise stated, evaluated after 13 days
In short: as §2

[9] = test system: Amaranthus retoflexus (AMARE); assay: as above; conditions: post-emergence spray, 1000 g/ha unless otherwise stated, evaluated after 13 days
In short: as §2

[10] = test system: Setaria faberi (SETFA); assay: Pre-emergence Test (glasshouse, percentage damage to the plant); conditions: 1000 g/ha unless otherwise stated, five-point scale
[11] = test system: Echinochloa crus-galli (ECHCG); assay: as above; conditions: 1000 g/ha unless otherwise stated, five-point scale
[12] = test system: Zea mays (ZEAMX); assay: as above; conditions: 1000 g/ha unless otherwise stated, five-point scale

Compound | percentage damage to the plant, IPOHE [1] | percentage damage to the plant, AMARE [2] | percentage damage to the plant, ABUTH [3] | Post-emergence Test SETFA, percentage damage to the plant (five-point scale) [4] | Post-emergence Test ZEAMX, percentage damage to the plant (five-point scale) [5] | Post-emergence Test IPOHE, percentage damage to the plant (five-point scale) [6] | Post-emergence Test ECHCG, percentage damage to the plant (five-point scale) [7] | Post-emergence Test ABUTH, percentage damage to the plant (five-point scale) [8] | Post-emergence Test AMARE, percentage damage to the plant (five-point scale) [9] | percentage damage to the plant, SETFA [10] | percentage damage to the plant, ECHCG [11] | percentage damage to the plant, ZEAMX [12]
CCn1c(C)c(-c2ccc(OC)c(C)c2)c(=O)c(C(=O)O)c1-c1ccc(Cl)c(Cl)c1 [Compound 100, 2-(3,4-dichlorophenyl)-1-ethyl-5-(4-methoxy-3-methyl-phenyl)-6-methyl-4-oxo-pyridine-3-carboxylic acid] | 1 (1=0-20%) | 1 (1=0-20%) | 1 (1=0-20%) | 3 (3=41-60%) | 3 (3=41-60%) | 1 (1=0-20%) | 1 (1=0-20%) | 3 (3=41-60%) | 2 (2=21-40%) | 4 (4=61-80%) | 1 (1=0-20%) | 1 (1=0-20%)
CCn1c(C)c(-c2ccc(OC)c(Cl)c2)c(=O)c(C(=O)O)c1-c1ccc(Cl)c(Cl)c1 [Compound 101, 5-(3-chloro-4-methoxy-phenyl)-2-(3,4-dichlorophenyl)-1-ethyl-6-methyl-4-oxo-pyridine-3-carboxylic acid] | 1 (1=0-20%) | 2 (2=21-40%) | 2 (2=21-40%) | 3 (3=41-60%) | 2 (2=21-40%) | 2 (2=21-40%) | 3 (3=41-60%) | 3 (3=41-60%) | 3 (3=41-60%) | 4 (4=61-80%) | 2 (2=21-40%) | 2 (2=21-40%)
CCn1c(C)c(-c2ccc(OC)c(F)c2)c(=O)c(C(=O)O)c1-c1ccc(Cl)c(Cl)c1 [Compound 102, 2-(3,4-dichlorophenyl)-1-ethyl-5-(3-fluoro-4-methoxy-phenyl)-6-methyl-4-oxo-pyridine-3-carboxylic acid] | 3 (3=41-60%) | 2 (2=21-40%) | 3 (3=41-60%) | 4 (4=61-80%) | 1 (1=0-20%) | 3 (3=41-60%) | 3 (3=41-60%) | 3 (3=41-60%) | 3 (3=41-60%) | 4 (4=61-80%) | 2 (2=21-40%) | 1 (1=0-20%)
CCOc1cc(C)cc(-c2c(C)n(CC)c(-c3ccc(Cl)c(Cl)c3)c(C(=O)O)c2=O)c1 [Compound 103, 2-(3,4-dichlorophenyl)-5-(3-ethoxy-5-methyl-phenyl)-1-ethyl-6-methyl-4-oxo-pyridine-3-carboxylic acid] | 1 (1=0-20%) | 1 (1=0-20%) | 1 (1=0-20%) | 1 (1=0-20%) | 1 (1=0-20%) | 1 (1=0-20%) | 1 (1=0-20%) | 2 (2=21-40%) | 1 (1=0-20%) | 2 (2=21-40%) | 1 (1=0-20%) | 1 (1=0-20%)
CCn1c(C)c(-c2ccc(F)c(F)c2)c(=O)c(C(=O)O)c1-c1ccc(Cl)c(Cl)c1 [Compound 104, 2-(3,4-dichlorophenyl)-5-(3,4-difluorophenyl)-1-ethyl-6-methyl-4-oxo-pyridine-3-carboxylic acid] | 1 (1=0-20%) | 4 (4=61-80%) | 2 (2=21-40%) | 4 (4=61-80%) | 1 (1=0-20%) | 1 (1=0-20%) | 3 (3=41-60%) | 3 (3=41-60%) | 3 (3=41-60%) | 4 (4=61-80%) | 2 (2=21-40%) | 1 (1=0-20%)
CCn1c(C)c(-c2ccc(F)c(OCC(F)(F)F)c2)c(=O)c(C(=O)O)c1-c1ccc(Cl)c(Cl)c1 [Compound 105, 2-(3,4-dichlorophenyl)-1-ethyl-5-[4-fluoro-3-(2,2,2-trifluoroethoxy)phenyl]-6-methyl-4-oxo-pyridine-3-carboxylic acid] | 1 (1=0-20%) | 3 (3=41-60%) | 1 (1=0-20%) | 4 (4=61-80%) | 2 (2=21-40%) | 1 (1=0-20%) | 3 (3=41-60%) | 2 (2=21-40%) | 2 (2=21-40%) | 4 (4=61-80%) | 2 (2=21-40%) | 1 (1=0-20%)
CCn1c(C)c(-c2cccc(C(F)F)c2)c(=O)c(C(=O)O)c1-c1ccc(Cl)c(Cl)c1 [Compound 106, 2-(3,4-dichlorophenyl)-5-[3-(difluoromethyl)phenyl]-1-ethyl-6-methyl-4-oxo-pyridine-3-carboxylic acid] | 1 (1=0-20%) | 1 (1=0-20%) | 2 (2=21-40%) | 1 (1=0-20%) | 1 (1=0-20%) | 2 (2=21-40%) | 1 (1=0-20%) | 3 (3=41-60%) | 3 (3=41-60%) | 1 (1=0-20%) | 1 (1=0-20%) | 1 (1=0-20%)
CCOc1cc(-c2c(C)n(CC)c(-c3ccc(Cl)c(Cl)c3)c(C(=O)O)c2=O)ccc1C#N [Compound 107, 5-(4-cyano-3-ethoxy-phenyl)-2-(3,4-dichlorophenyl)-1-ethyl-6-methyl-4-oxo-pyridine-3-carboxylic acid] | 1 (1=0-20%) | 4 (4=61-80%) | 1 (1=0-20%) | 2 (2=21-40%) | 2 (2=21-40%) | 3 (3=41-60%) | 2 (2=21-40%) | 3 (3=41-60%) | 4 (4=61-80%) | 5 (5=81-100%) | 4 (4=61-80%) | 1 (1=0-20%)
